Columns and labels:
[1] = test system: ARPE-19 cells; assay: MTT assay, proliferation/cytotoxicity in ARPE-19 cells; type: cell-based, human; details: 72 hours
Method: (§1) ARPE-19 cells were grown in DMEM/F12 medium supplemented with 10% FBS, 100 units/ml penicillin G, and 100 μg/ml streptomycin sulfate. HUVECs were grown in vascular cell basal medium supplemented with endothelial cell growth kit. Cells were incubated in a humidified incubator at 37° C. under 5% CO2 and 95% air.
(§2) MTT assay was used to measure the viability of ARPE-19 cells and HUVECs. 2×10^5 ARPE-19 cells or 5×10^4 HUVECs were seeded in 96-well plates (100 μl/well) and allowed to grow overnight. Negative control was prepared by adding 100 μl medium without cells. The cells were then treated with fresh medium with a compound of Formula (II) (“(II)”) (0.03, 0.1, 0.3, 1, 3 and 10 μg/ml) and/or oxidants (NaIO3, H2O2, t-BHP and NaN3) for 12, 24, or 72 hours (200 μl/well). The vehicle control group was treated with vehicle. 20 μl MTT (5 mg/ml) was added to wells, and incubated for another 4 h. After incubation, the medium was discarded and 100 μl DMSO was added to solubilize formazan produced from MTT by the viable cells. Absorbance was measured at 570 nm using a microplate reader (Bio-Rad Laboratories, Inc., CA). Cells viability was calculated according to the following formula: Viability of cells (%)=(absorbance in tested sample−absorbance in negative control)/(absorbance in vehicle control−absorbance in negative control)×100%.

[2] = test system: HUVECs; assay: MTT assay, proliferation/cytotoxicity in HUVECs; type: cell-based, human; details: 72 hours
Method: as §1, §2

[3] = test system: ARPE-19 cells; assay: Hypoxia-induced damage in ARPE-19 cells (MTT); type: cell-based, human; details: hypoxia 1% O2, 72 h
Method: as §1
MTT assay was used to measure the viability of ARPE-19 cells and HUVECs. 2×10^5 ARPE-19 cells or 5×10^4 HUVECs were seeded in 96-well plates (100 μl/well) and allowed to grow overnight. Negative control was prepared by adding 100 μl medium without cells. The cells were then treated with fresh medium with a compound of Formula (II) (“(II)”) (0.03, 0.1, 0.3, 1, 3 and 10 μg/ml) and/or oxidants (NaIO3, H2O2, t-BHP and NaN3) for 12, 24, or 72 hours (200 μl/well). The vehicle control group was treated with vehicle. 20 μl MTT (5 mg/ml) was added to wells, and incubated for another 4 h. After incubation, the medium was discarded and 100 μl DMSO was added to solubilize formazan produced from MTT by the viable cells. Absorbance was measured at 570 nm using a microplate reader (Bio-Rad Laboratories, Inc., CA). Cells viability was calculated according to the following formula: Viability of cells (%)=(absorbance in tested sample−absorbance in negative control)/(absorbance in vehicle control−absorbance in negative control)×100%. […]

[4] = test system: ARPE-19 cells; assay: H2O2-induced injury in ARPE-19 cells (MTT); type: cell-based, human; details: 10 μg/ml compound, 24 hours
Method: as §1, §2

[5] = test system: HUVECs; assay: H2O2-induced injury in HUVECs (MTT); type: cell-based, human; details: 24 hours; for enhancement of H2O2-induced injury in HUVECs: 10 μg/ml compound
Method: as §1, §2

[6] = test system: ARPE-19 cells; assay: t-BHP-induced injury in ARPE-19 cells (MTT); type: cell-based, human; details: 12 hours
Method: as §1, §2

[7] = test system: HUVECs; assay: t-BHP-induced injury in HUVECs (MTT); type: cell-based, human; details: 12 hours
Method: as §1, §2

[8] = test system: NaIO3 induced dry AMD rat model; assay: NaIO3 induced dry AMD rat model, c-wave of ERG; type: in vivo; details: 1% eye drops 3 times a day, 35 mg/kg NaIO3, BN rats
Method: A total of thirty 8-week-old male Brown-Norway (BN) rats were randomly divided into 3 groups, 10 rats in normal group, 10 rats in NaIO3 group and 10 rats in (II)+NaIO3 group. Control group was instilled with solvent (2-hydroxypropyl-β-cyclodextrin, Sigma-Aldrich) alone without NaIO3 injection. NaIO3 group was instilled with solvent plus 35 mg/kg NaIO3 injection through hypoglossal vein; whereas (II)+NaIO3 group was instilled with 1% (II) eye drops plus 35 mg/kg NaIO3 injection. Both eyes of all rats were instilled with 1 drop for 3 times a day for 1 week before and 4 weeks after NaIO3 injection. At the end of 2 and 4 weeks, RPE function was measured with c-wave of ERG.
BN rats were dark adapted for 2 hours, and then anesthetized with ketamine 35 mg/kg plus xylazine 5 mg/kg i.m, Half of the initial dose was given each 1 hour thereafter. Pupils of all rats were dilated with one drop each of 1% atropine, and 2.5% phenylephrine. Before recording, one drop of 0.5% tetracaine was given for surface anesthesia. All rats were kept warm during ERG measurement. DC-ERG recording methods developed by Peachey were followed. […] Data were analyzed by iWORX LabScribe Data Recording Software (iWorxOCB Sciences, Dover, N.H.). […]

SMILES: CC(C)=CCC/C(C)=C/Cc1c([C@@H]2CC(=O)c3c(cc(O)c(CC=C(C)C)c3O)O2)ccc(O)c1O [Formula (II)]
- effect on proliferation of ARPE-19 cells ([1]; 0.03 μg/ml to 3 μg/ml): did not affect
- inhibition at 10 µg/mL ([1]; Homo sapiens, ARPE-19, 10 μg/ml): 34%
- effect on proliferation of HUVECs ([2]; 0.03 μg/ml to 3 μg/ml): did not affect
- inhibition at 10 µg/mL ([2]; Homo sapiens, HUVEC, 10 μg/ml): 92%
- effect on viability of ARPE-19 cells in hypoxic condition ([3]; 0.03 μg/ml to 3 μg/ml): no effect
- reversal of injury induced by hypoxia in ARPE-19 cells ([3]; 10 μg/ml): 24%
- reversal of H2O2-induced injury in ARPE-19 cells ([4]; 200 μM H2O2): 55%
- reversal of H2O2-induced injury in ARPE-19 cells ([4]; 400 μM H2O2): 72%
- enhancement of H2O2-induced injury in HUVECs ([5]; 200 μM H2O2): 63%
- enhancement of H2O2-induced injury in HUVECs ([5]; 400 μM H2O2): 42%
- effect on H2O2-induced injury in HUVECs ([5]; 0.3 and 1 μg/ml compound): reversed
- effect on t-BHP-induced injury in ARPE-19 cells [6]: significantly reversed
- enhancement of t-BHP-induced injury in HUVECs ([7]; 50 μM t-BHP, 3 μg/ml compound): 27%
- enhancement of t-BHP-induced injury in HUVECs ([7]; 50 μM t-BHP, 10 μg/ml compound): 71%
- enhancement of t-BHP-induced injury in HUVECs ([7]; 100 μM t-BHP, 3 μg/ml compound): 21%
- enhancement of t-BHP-induced injury in HUVECs ([7]; 100 μM t-BHP, 10 μg/ml compound): 80%
- enhancement of t-BHP-induced injury in HUVECs ([7]; 200 μM t-BHP, 10 μg/ml compound): 76%
- c-wave of ERG in NaIO3-treated rats [8]: markedly reverse
- reversal of NaIO3 induced dry AMD model (c-wave of ERG) [8]: 4 times

Reference: US9370503B1, “Compounds for treating ocular diseases” (priority 2015, dated 2016)
